Laboratory results taken from patent US9932331B2, “Phenyl tetrahydroisoquinoline compound substituted with heteroaryl” (TAISHO PHARMACEUTICAL CO., LTD, priority 2014, dated 2018).
Counter-ions that a name gives are not always drawn.

Target: T1, human NHE3 (Homo sapiens, UniProt P48764)
T1 sequence (P48764 26-834): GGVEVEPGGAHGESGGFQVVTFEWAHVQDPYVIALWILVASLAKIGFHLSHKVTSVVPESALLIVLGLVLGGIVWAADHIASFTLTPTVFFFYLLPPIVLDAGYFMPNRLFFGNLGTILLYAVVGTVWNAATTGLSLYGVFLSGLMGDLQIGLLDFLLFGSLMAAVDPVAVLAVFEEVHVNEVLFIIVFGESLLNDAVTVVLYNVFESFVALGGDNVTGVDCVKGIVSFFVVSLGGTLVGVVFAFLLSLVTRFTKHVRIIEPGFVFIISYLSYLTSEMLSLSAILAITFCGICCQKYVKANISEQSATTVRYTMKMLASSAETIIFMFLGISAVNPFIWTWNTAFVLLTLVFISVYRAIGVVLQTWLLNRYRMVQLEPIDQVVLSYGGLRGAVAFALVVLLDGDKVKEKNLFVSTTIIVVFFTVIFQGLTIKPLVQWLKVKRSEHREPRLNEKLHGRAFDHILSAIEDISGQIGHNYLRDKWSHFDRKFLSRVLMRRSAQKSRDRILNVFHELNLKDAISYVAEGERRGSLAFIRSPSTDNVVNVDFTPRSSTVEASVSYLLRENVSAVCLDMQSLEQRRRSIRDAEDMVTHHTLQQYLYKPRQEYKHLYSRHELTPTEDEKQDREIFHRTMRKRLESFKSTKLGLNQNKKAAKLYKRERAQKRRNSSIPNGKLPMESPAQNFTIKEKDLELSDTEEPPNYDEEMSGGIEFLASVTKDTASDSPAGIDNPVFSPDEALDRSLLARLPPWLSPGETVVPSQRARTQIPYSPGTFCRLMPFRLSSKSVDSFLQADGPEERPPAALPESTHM
Assay: NHE3 inhibition test (recovery of intracellular pH in cell line stably expressing human NHE3)
Assay type: cell-based
Conditions: OK cells deficient in endogenous NHE stably expressing human NHE3; BCECF fluorescence, initial rate of pH recovery; read-out: human NHE3 inhibitory activity IC50
Method: (1) Preparation of Cell Line Deficient in Endogenous NHE
The cell line deficient in endogenous NHE was prepared according to the method of Jacques Pouyssegur et al. (Proc. Natl. Acad. Sci. USA. 1984, Vol. 81, 4833-4837) using opossum kidney (OK) cells (ATCC).
(2) Preparation of Expression Plasmid and Cell Line Stably Expressing Human NHE3
The expression plasmid was constructed by inserting a human NHE3 (SLC9A3, Accession No. NM_004174) cDNA sequence (GeneCopoeia, Inc.) into a pcDNA3.2/V5-DEST vector (Life Technologies Corp.).
The OK cells deficient in endogenous NHE were transfected with the constructed human NHE3 expression plasmid to prepare stably expressing cells. The transfection was carried out by electroporation using a Nucleofector 2b device (Lonza Group Ltd.). A stably expressing cell line was selected in medium supplemented with 500 μg/mL Geneticin (Life Technologies Corp.) and isolated.
NHE3 activity measurement method using cell: The activity was determined by using the NHE3-mediated recovery of intracellular pH occurring after intracellular acidification, as an index. The intracellular pH was measured by a partial modification of the pH-sensitive fluorescent indicator method reported by Tsien et al. (Proc. Natl. Acad. Sci. USA., 1984, 81, 7436-7440).
The cell line stably expressing human NHE3 was inoculated on a poly-D-lysine-coated 96-well plate (Greiner Bio-one) and cultured overnight. […] Then, Hank's balanced salt buffer solution containing 0.25 μM BCECF-AM (Dojindo Laboratories) was added to the cells, which were then incubated at 37° C. for 30 minutes. […] The cells thus incubated in the NH4Cl buffer solution were washed with NH4Cl-free buffer solution (133.8 mM choline chloride, […], 5 mM glucose, 4.7 mM KCl, 1.25 mM CaCl2, 1.25 mM MgCl2, 0.97 mM K2HPO4, 0.23 mM KH2PO4, pH 7.4) to decrease the intracellular pH. After the washing step, 70 μL of a test compound solution prepared with the NH4Cl-free buffer solution was added to the cells, and 70 iμL of sodium ion-containing buffer solution (133.8 mM NaCl, 10 mM HEPES, 5 mM glucose, 4.7 mM KCl, 1.25 mM CaCl2, 1.25 mM MgCl2, 0.97 mM Na2HPO4, 0.23 mM NaH2PO4, pH 7.4) was added thereto in a measurement system FDSS6000 (Hamamatsu Photonics K.K.) to start the recovery of pH. The recovery of intracellular pH was monitored using BCECF fluorescence (excitation wavelength: 480 nm, fluorescence wavelength: 520 to 560 nm), and the initial rate of the pH recovery was plotted. The recovery of pH without test compound was defined as the maximum recovery, and the test compound concentration necessary to inhibit 50% of the maximum recovery was calculated as an IC50 value.

SMILES	IC50 [nM]
CN1Cc2c(Cl)cc(Cl)cc2[C@H](c2cccc(-c3cn(CCOCCOCCOCCNC(=O)NCCNC(=O)NCCOCCOCCOCCn4cc(-c5cccc([C@@H]6CN(C)Cc7c(Cl)cc(Cl)cc76)c5)nn4)nn3)c2)C1 [Example 7-34, 1,1′-Ethane-1,2-diylbis {3-[2-(2-{2-[2-(4-{3-[(4S)-6,8-dichloro-2-methyl-1,2,3,4-tetrahydroisoquinolin-4-yl]phenyl}-1H-1,2,3-triazol-1-yl)ethoxy]ethoxy}ethoxy)ethyl]urea}hydrochloride]	3.3
CN1Cc2c(Cl)cc(Cl)cc2[C@H](c2cccc(-c3cnnc(NCCOCCOCCOCCNC(=O)[C@H](O)[C@@H](O)C(=O)NCCOCCOCCOCCNc4cc(-c5cccc([C@@H]6CN(C)Cc7c(Cl)cc(Cl)cc76)c5)cnn4)c3)c2)C1 [Example 8-19, (2R,3R)-N,N′-Bis{2-[2-(2-{2-[(5-{3-[(4S)-6,8-dichloro-2-methyl-1,2,3,4-tetrahydroisoquinolin-4-yl]phenyl}pyridazin-3-yl)amino]ethoxy}ethoxy)ethoxy]ethyl}-2,3-dihydroxybutanediamide tetrahydrochloride]	6.8
CN1Cc2c(Cl)cc(Cl)cc2[C@H](c2cccc(-c3nnc(CCOCCOCCOCCNC(=O)NCCCCNC(=O)NCCOCCOCCOCCc4nnc(-c5cccc([C@@H]6CN(C)Cc7c(Cl)cc(Cl)cc76)c5)[nH]4)[nH]3)c2)C1 [Example 7-22, 1,1′-Butane-1,4-diylbis {3-[2-(2-{2-[2-(5-{3-[(4S)-6,8-dichloro-2-methyl-1,2,3,4-tetrahydroisoquinolin-4-yl]phenyl}-4H-1,2,4-triazol-3-yl)ethoxy]ethoxy}ethoxy)ethyl]urea} diformate]	5.7
CN1Cc2c(Cl)cc(Cl)cc2[C@H](c2cccc(-c3cn(CCOCCOCCOCCNC(=O)NCCCNC(=O)NCCOCCOCCOCCn4cc(-c5cccc([C@@H]6CN(C)Cc7c(Cl)cc(Cl)cc76)c5)nn4)nn3)c2)C1 [Example 7-35, 1,1′-Propane-1,3-diylbis {3-[2-(2-{2-[2-(4-{3-[(4S)-6,8-dichloro-2-methyl-1,2,3,4-tetrahydroisoquinolin-4-yl]phenyl}-1H-1,2,3-triazol-1-yl)ethoxy]ethoxy}ethoxy)ethyl]urea}hydrochloride]	4.4
CN1Cc2c(Cl)cc(Cl)cc2[C@H](c2cccc(-c3cc(OCCOCCOCCOCCNC(=O)CCC(=O)NCCOCCOCCOCCOc4cc(-c5cccc([C@@H]6CN(C)Cc7c(Cl)cc(Cl)cc76)c5)ncn4)ncn3)c2)C1 [Example 8-22, N,N′-Bis{2-[2-(2-{2-[(6-{3-[(4S)-6,8-dichloro-2-methyl-1,2,3,4-tetrahydroisoquinolin-4-yl]phenyl}pyrimidin-4-yl)oxy]ethoxy}ethoxy)ethoxy]ethyl}butanediamide hydrochloride]	10.5
CN1Cc2c(Cl)cc(Cl)cc2[C@H](c2cccc(-c3cncc(NCCOCCOCCNC(=O)NCCCCNC(=O)NCCOCCOCCNc4cncc(-c5cccc([C@@H]6CN(C)Cc7c(Cl)cc(Cl)cc76)c5)n4)n3)c2)C1 [Example 7-20, 1,1′-Butane-1,4-diylbis{3-[2-(2-{2-[(6-{3-[(4S)-6,8-dichloro-2-methyl-1,2,3,4-tetrahydroisoquinolin-4-yl]phenyl}pyrazin-2-yl)amino]ethoxy}ethoxy)ethyl]urea}pentahydrochloride]	7.5
CN1Cc2c(Cl)cc(Cl)cc2[C@H](c2cccc(-c3cn(CCOCCOCCOCCNC(=O)CN(CCN(CC(=O)NCCOCCOCCOCCn4cc(-c5cccc([C@@H]6CN(C)Cc7c(Cl)cc(Cl)cc76)c5)nn4)CC(=O)NCCOCCOCCOCCn4cc(-c5cccc([C@@H]6CN(C)Cc7c(Cl)cc(Cl)cc76)c5)nn4)CC(=O)NCCOCCOCCOCCn4cc(-c5cccc([C@@H]6CN(C)Cc7c(Cl)cc(Cl)cc76)c5)nn4)nn3)c2)C1 [Example 9-1, hydrochloride]	13.1
